# From patent EP1087941B9, “THIOLESTERS AND USES THEREOF” (THE UNITED STATES OF AMERICA, as represented by THE …, priority 1998, dated 1999)
# pEC50, pIC50: −log10 of the molar value. Read-outs that look alike come from different tables or passages of the source.
# Tests used:
# CEM-SS cells = experiment: cells; type: cell-based; settings: for pIC50: Homo sapiens, CEM-SS; for toxicity at the high test dose: high test dose of 316 µM
# Text: (§1) One exemplary means to determine antiviral activity is with CEM-SS cells and virus (e.g., HIV-1RF) (MOI = 0.01) using the XTT (2,3-bis[2-methoxy- 4-nitro-5-sulfophenyl] -5- [(phenylamino)carbonyl]-2H-tetrazolium hydroxide) cytoprotection assay, as described by Rice (1993) PNAS 90:9721-9724, and Rice (1997) Antimicrob. Agents Chemother. 41:419-426. Briefly, cells are infected with HIV-1RF (or other virus to be tested) in the presence of various dilutions of test compounds (thiolesters and controls). The cultures are incubated for seven days. During this time control cultures without protective compounds (i.e., compounds with anti-viral activity) replicate virus, induce syncytia, and result in about 90% cell death. The cell death is measured by XTT dye reduction. XTT is a soluble tetrazolimn dye that measures mitochondrial energy output, similar to MTT. Positive controls using dextran sulfate (an attachment inhibitor) or 3'-Azido -2'-3'-dideoxythymidine, AZT (a reverse transcriptase inhibitor) are added to each assay. Individual assays are done in duplicate using a sister plate method.
# (§2) Effective antiviral concentrations providing 50% cytoprotection (EC50), and cellular growth inhibitory concentrations causing 50% cytotoxicity (IC50) are calculated.
# [1] = biological target: T1, recombinant HIV-1 NCp7 protein (Human immunodeficiency virus type 1 group M subtype B, UniProt P03347); experiment: Trp37 zinc finger fluorescence (zinc ejection) assay; type: biochemical; settings: for Zinc Finger Reactivity RFU/30 min: Table 2
# T1 construct: within the nucleocapsid p7 (NCp7) protein portion of the polyprotein
# Method: Zinc finger reactivity was measured using a Zn specific fluorochrome, TSQ, N-(6-methoxy-8-quinolyl) -p-toluenesulfonamide, assay or a Trp37 zinc finger fluorescence assay. Fluorescent measurements of the Trp37 residue in the C-terminal finger of recombinant HIV-1 NCp7 protein were performed as described by Rice (1995) Science 270:1194-1197; Rice (1997) Antimicrob. Agents Chemother. 41:419-426. Measurement of Zn ejection from both fingers was measured using the Zn-selective fluorchrome probe TSQ (Molecular Probes, Eugene OR) as described by Rice (1996) J. Med. Chem 39:3606-3616. Measurement of the ability of NCp7 to bind to a DNA oligomer, a 44 mer: […] (SEQ ID NO:1), analogous to the HIV-1 RNA packaging site was carried out as described by Huang (1998) J. Med. Chem. 41:1371-1381, see also, Rossio (1998) HIV Pathogenesis and Treatment: Keystone Symposium on Molecular and Cellular Biology, Abstract # 4082. Briefly, 50 nM NCp7 was treated with test compounds for 1 hour at RT in […] buffer containing 10% glycerol and 50 mM Tris-HCl (pH 7.5). Labeled oligomer (0.1 picomole, end labeled [^32P]) was added in an equal volume of buffer containing 10% glycerol, 50 mM Tris-HCl (pH 7.5), 400 mM KCl and 40 mM MgCl2. The reaction was continued for 15 min at room temperature, and a total of […] (or 1/4 of the total reaction volume) was separated on nondenaturing 4.5% polyacrylamide gels in 0.5X Tris-Borate electrophoresis buffer. NCp7-oligomer complexes were visualized by autoradiography.
# Changes in the intrinsic fluorescence of aromatic protein moieties are commonly used to monitor a reaction which involves a change in protein conformation. In the present invention, fluorescence can be used to monitor the loss of metal ion from a zinc finger, e.g., the loss of zinc from a CCHC retroviral zinc finger protein, after contact with a thiolester of the invention. The intrinsic fluorescence of Trp 37 in the second zinc finger of HIV-1 NC protein has been used to monitor nucleic acid binding and conformation of the zinc finger complex (see, Summers (1992) supra).
# Zinc ejection is measured by the ability of compounds to chemically attack the cysteines in purified NCp7 protein resulting in a loss of fluorescence due to the movement of the tryptophan 37 residue from an exposed to an internal position on the protein. Zinc ejection is measured and expressed as either percent decrease in total fluorescence or decrease in relative fluorescence units per min during a 30 min assay (RFU/min). A thiolester is considered within the scope of the invention if any amount of zinc ejection is detected. For example, compound 50 has a zinc ejection rate of 0.86 RFU/min.
# HIV-1RF = experiment: XTT cytoprotection assay (antiviral activity); type: cell-based; settings: for antiviral activity: result in words
# Text: as §1, §2
# [2] = read-out: Antiviral Activity IC50
# [3] = read-out: IC50 / cellular toxicity
# [4] = average decrease in relative fluorescence
# [5] = Human immunodeficiency virus 1, read-out: Antiviral Activity EC50
# [6] = Table 3, average decrease in relative fluorescence
# [7] = Human immunodeficiency virus 1, B104
# [8] = Human immunodeficiency virus 1, read-out: EC50 (concentration inhibiting 50% virus replication)
# [9] = read-out: Antiviral Activity IC50%
# [10] = Table 10, average decrease in relative fluorescence units over 30 min
# [11] = Human immunodeficiency virus 1, read-out: Antiviral Activity EC50%
# [12] = Table 4, average decrease in relative fluorescence units over 30 min
# [13] = Table 6, average decrease in relative fluorescence units over 30 min
# [14] = Table 5, average decrease in relative fluorescence units over 30 min
compound,measurement,setting,value
"NS(=O)(=O)c1ccc(CNC(=O)c2ccccc2SSc2ccccc2C(=O)NCc2ccc(S(N)(=O)=O)cc2)cc1 [Compound 23D, N,N'-(2,2'-dithiodibenzoyl)-bis-4-(aminomethyl)benzene-sulfonamide]",pIC50,CEM-SS cells; [2],4.71
same,pIC50,CEM-SS cells; [3],4.71
same,zinc finger reactivity / zinc ejection rate,[1],3.3 RFU/min
same,Zinc Finger Reactivity RFU/30 min,[1]; [4],3.3 RFU/30 min
same,pEC50,HIV-1RF; [5],6.48
Nc1ccc(S(=O)(=O)c2ccc(NC(=O)c3ccccc3SSc3ccccc3C(=O)Nc3ccc(S(=O)(=O)c4ccc(N)cc4)cc3)cc2)cc1 [Compound 26D],pIC50,CEM-SS cells; [2],> 3.50
same,toxicity at the high test dose,CEM-SS cells,no toxicity
same,zinc finger reactivity / zinc ejection rate,[1],3.3 RFU/min
same,Zinc Finger Reactivity RFU/ min,[1]; [6],3.3 RFU/ min
same,pEC50,HIV-1RF; [7],5.37
same,pEC50,HIV-1RF; [5],5.37
same,pEC50,HIV-1RF; [8],5.37
CC(=O)Nc1ccc(S(=O)(=O)c2ccc(NC(=O)c3ccccc3SSc3ccccc3C(=O)Nc3ccc(S(=O)(=O)c4ccc(NC(C)=O)cc4)cc3)cc2)cc1 [Compound 27D],pIC50,CEM-SS cells; [2],3.80
same,pIC50,CEM-SS cells; [3],3.80
same,zinc finger reactivity / zinc ejection rate,[1],5.9 RFU/min
same,Zinc Finger Reactivity RFU/ min,[1]; [6],5.9 RFU/ min
same,pEC50,HIV-1RF; [7],5.82
same,pEC50,HIV-1RF; [5],5.82
same,pEC50,HIV-1RF; [8],5.82
CC(=O)NS(=O)(=O)c1ccc(NC(=O)c2ccccc2SC(=O)CCC[n+]2ccccc2)cc1 [Compound 54],pIC50,CEM-SS cells; [9],3.76
same,Zinc Finger Reactivity RFU/ min,[1]; [10],2.2 RFU/ min
same,pEC50,HIV-1RF; [11],5.00
O=C(Nc1ccc(S(=O)(=O)c2ccc(NC(=O)c3ccccc3SSc3ccccc3C(=O)Nc3ccc(S(=O)(=O)c4ccc(NC(=O)c5cccs5)cc4)cc3)cc2)cc1)c1cccs1 [Compound 30D],pIC50,CEM-SS cells; [2],3.72
same,pEC50,HIV-1RF; [5],4.91
CC(=O)Nc1cccc(S(=O)(=O)c2cccc(NC(=O)c3ccccc3SSc3ccccc3C(=O)Nc3cccc(S(=O)(=O)c4cccc(NC(C)=O)c4)c3)c2)c1 [Compound 36],pIC50,CEM-SS cells; [2],5.23
same,zinc finger reactivity / zinc ejection rate,[1],2 RFU/min
same,Zinc Finger Reactivity RFU/ min,[1]; [12],2 RFU/min
same,pEC50,HIV-1RF; [7],6.21
same,pEC50,HIV-1RF; [5],6.21
O=C(CCCCBr)Sc1ccccc1C(=O)Nc1ccc(S(=O)(=O)c2ccc([N+](=O)[O-])cc2)cc1 [Compound 46],pIC50,CEM-SS cells; [2],4.66
same,Zinc Finger Reactivity RFU/ min,[1]; [13],1 RFU/ min
same,pEC50,HIV-1RF; [11],5.80
NS(=O)(=O)c1ccc(CNC(=O)c2ccccc2SC(=O)CCCC[n+]2ccccc2)cc1 [Compound 48],pIC50,CEM-SS cells; [2],4.26
same,pIC50,CEM-SS cells; [3],4.26
same,Zinc Finger Reactivity RFU/ min,[1]; [13],1.4 RFU/ min
same,pEC50,HIV-1RF; [11],5.96
CC(=O)NS(=O)(=O)c1ccc(NC(=O)c2ccccc2NC(=O)CCl)cc1 [Compound 39],pIC50,CEM-SS cells; [9],3.69
same,Zinc Finger Reactivity RFU/ min,[1]; [14],0.3 RFU/ min
same,pEC50,HIV-1RF; [5],< 3.50
same,antiviral activity,HIV-1RF,completely inactive
CC(=O)NS(=O)(=O)c1ccc(NC(=O)c2ccccc2SC(=O)c2ccccc2)cc1 [Compound 41],pIC50,CEM-SS cells; [9],4.34
same,pIC50,CEM-SS cells; [3],~4.30
same,Zinc Finger Reactivity RFU/ min,[1]; [14],2.2 RFU/ min
same,pEC50,HIV-1RF; [5],5.59
CC(=O)NS(=O)(=O)c1ccc(NC(=O)c2ccccc2SC(C)=O)cc1 [Compound 40],pIC50,CEM-SS cells; [9],4.25
same,pIC50,CEM-SS cells; [3],~4.30
same,Zinc Finger Reactivity RFU/ min,[1]; [14],4.2 RFU/ min
same,pEC50,HIV-1RF; [5],5.55
"CC(=O)NS(=O)(=O)c1ccc(NC(=O)c2ccccc2NC(=O)CCCl)cc1 [Compound 37, N-[2-(3-chloro-propionamido)benzoyl]sulfacetamide]",pIC50,CEM-SS cells; [9],< 3.50
same,Zinc Finger Reactivity RFU/ min,[1]; [14],RFU/ min^b 2.0
same,zinc finger reactivity,[1]; result in words,modest zinc finger reactivity
same,antiviral activity,HIV-1RF,neither had appreciable antiviral activity
O=c1c2ccccc2sn1-c1ccc(S(=O)(=O)c2ccc(NS(=O)(=O)Cc3ccccc3[N+](=O)[O-])cc2)cc1 [34 BITA],pIC50,CEM-SS cells; [2],4.23
same,Zinc Finger Reactivity RFU/ min,[1]; [6],2 RFU/ min
same,pEC50,HIV-1RF; [5],5.49
same,antiviral activity,HIV-1RF,significant antiviral activity
O=c1c2ccccc2sn1-c1ccc(S(=O)(=O)c2ccc([N+](=O)[O-])cc2)cc1 [31 BITA],pIC50,CEM-SS cells; [2],< 3.50
same,Zinc Finger Reactivity RFU/ min,[1]; [6],4.1 RFU/ min
same,pEC50,HIV-1RF; [5],< 3.50
same,antiviral activity,HIV-1RF,without antiviral activity
O=C(CCCCBr)Sc1ccccc1C(=O)Nc1ccc(S(=O)(=O)c2ccc(NS(=O)(=O)Cc3ccccc3[N+](=O)[O-])cc2)cc1 [Compound 49],pIC50,CEM-SS cells; [2],< 3.50
same,Zinc Finger Reactivity RFU/ min,[1]; [13],1.9 RFU/ min
same,pEC50,HIV-1RF; [11],< 3.50
COc1ccc(C(=O)Nc2ccc(S(=O)(=O)c3ccc(NC(=O)c4ccccc4SSc4ccccc4C(=O)Nc4ccc(S(=O)(=O)c5ccc(NC(=O)c6ccc(OC)cc6)cc5)cc4)cc3)cc2)cc1 [Compound 29D],pIC50,CEM-SS cells; [2],4.10
same,Zinc Finger Reactivity RFU/ min,[1]; [6],6.9 RFU/ min
same,pEC50,HIV-1RF; [5],5.42
"NS(=O)(=O)c1ccc(CCNC(=O)c2ccccc2SSc2ccccc2C(=O)NCCc2ccc(S(N)(=O)=O)cc2)cc1 [Compound 24D, N,N-(2,2'-dithiodibenzoyl)-bis-4-(2-aminoethyl)benzene-sulfonamide]",pIC50,CEM-SS cells; [2],4.28
same,Zinc Finger Reactivity RFU/30 min,[1]; [4],2.7 RFU/30 min
same,pEC50,HIV-1RF; [5],6.39
CC(=O)NS(=O)(=O)c1ccc(NC(=O)c2ccccc2SC(=O)CCCCC[n+]2ccccc2)cc1 [Compound 55],pIC50,CEM-SS cells; [9],4.16
same,Zinc Finger Reactivity RFU/ min,[1]; [10],1.9 RFU/ min
same,pEC50,HIV-1RF; [11],4.98
COc1ccc(C(=O)Sc2ccccc2C(=O)Nc2ccc(S(=O)(=O)NC(C)=O)cc2)cc1 [Compound 42],pIC50,CEM-SS cells; [9],4.36
same,pIC50,CEM-SS cells; [3],~4.30
same,Zinc Finger Reactivity RFU/ min,[1]; [14],3.5 RFU/ min
same,pEC50,HIV-1RF; [5],5.55
CC(=O)NS(=O)(=O)c1ccc(NC(=O)c2ccccc2NC(=O)CCCC[n+]2ccccc2)cc1 [Compound 56],pIC50,CEM-SS cells; [9],< 3.50
same,Zinc Finger Reactivity RFU/ min,[1]; [10],2.6 RFU/ min
same,pEC50,HIV-1RF; [11],< 3.50
same,antiviral activity,HIV-1RF,inactive
CC(=O)NS(=O)(=O)c1ccc(NC(=O)c2ccccc2SC(=O)CCCC[n+]2cccc(Cl)c2)cc1 [Compound 57],pIC50,CEM-SS cells; [9],3.58
same,Zinc Finger Reactivity RFU/ min,[1]; [10],0.2 RFU/ min
same,pEC50,HIV-1RF; [11],4.27
Nc1cccc(S(=O)(=O)c2cccc(NC(=O)c3ccccc3SSc3ccccc3C(=O)Nc3cccc(S(=O)(=O)c4cccc(N)c4)c3)c2)c1 [Compound 35],pIC50,CEM-SS cells; [2],4.09
same,zinc finger reactivity / zinc ejection rate,[1],0.92 RFU/min
same,Zinc Finger Reactivity RFU/ min,[1]; [12],0.92 RFU/min
same,pEC50,HIV-1RF; [7],6.00
same,pEC50,HIV-1RF; [5],6.00
O=C(Nc1ccc(S(=O)(=O)c2ccc(NS(=O)(=O)Cc3ccccc3[N+](=O)[O-])cc2)cc1)c1ccccc1SSc1ccccc1C(=O)Nc1ccc(S(=O)(=O)c2ccc(NS(=O)(=O)Cc3ccccc3[N+](=O)[O-])cc2)cc1 [Compound 34D],pIC50,CEM-SS cells; [2],< 3.50
same,toxicity at the high test dose,CEM-SS cells,no toxicity
same,Zinc Finger Reactivity RFU/ min,[1]; [6],1.5 RFU/ min
same,pEC50,HIV-1RF; [8],4.91
same,antiviral activity,HIV-1RF,significant antiviral activity
